Test results: ChEMBL document CHEMBL5046240, “Design, synthesis, and evaluation of potent RIPK1 inhibitors with in vivo anti-inflammatory activity” (Eur J Med Chem, 2022)
Active and inactive are the calls of the source. The rule behind the calls is not given here.

What was measured:
[1] = Cmax in Sprague-Dawley rat at 2 mg/kg, iv measured upto 24 hrs by LC-MS/MS analysis; type: ADME, organism-based; design: route intravenous, dose 2 mg/kg, time <=24; settings: in vivo
[2] = test system: HT-29; test: Anti-necroptic activity in human HT-29 cells assessed as TNFalpha/Z-VAD (TSZ) induced necroptosis by measuring cell viability preincubated for 1 hr followed by TSZ addition ans measured after 24 hrs by celltiter-glo luminescent cell viability assay; type: functional, cell-based
[3] = test system: L929; test: Anti-necroptic activity in mouse L929 cells assessed as TNFalpha/Z-VAD (TSZ) induced necroptosis by measuring cell viability preincubated for 1 hr followed by TSZ addition and measured after 24 hrs by celltiter-glo luminescent cell viability assay; type: functional, cell-based
[4] = Metabolic stability in human liver microsomes assessed as half life by LC-MS/MS analysis; type: ADME
[5] = biological target: Voltage-gated inwardly rectifying potassium channel KCNH2 (Homo sapiens, UniProt Q12809); test: Inhibition of hERG expressed in CHO cells at -80 mV holding potential measured after 4mins by automated patch-clamp assay; type: toxicity, cell-based
Chain of Voltage-gated inwardly rectifying potassium channel KCNH2 (Q12809 whole entry): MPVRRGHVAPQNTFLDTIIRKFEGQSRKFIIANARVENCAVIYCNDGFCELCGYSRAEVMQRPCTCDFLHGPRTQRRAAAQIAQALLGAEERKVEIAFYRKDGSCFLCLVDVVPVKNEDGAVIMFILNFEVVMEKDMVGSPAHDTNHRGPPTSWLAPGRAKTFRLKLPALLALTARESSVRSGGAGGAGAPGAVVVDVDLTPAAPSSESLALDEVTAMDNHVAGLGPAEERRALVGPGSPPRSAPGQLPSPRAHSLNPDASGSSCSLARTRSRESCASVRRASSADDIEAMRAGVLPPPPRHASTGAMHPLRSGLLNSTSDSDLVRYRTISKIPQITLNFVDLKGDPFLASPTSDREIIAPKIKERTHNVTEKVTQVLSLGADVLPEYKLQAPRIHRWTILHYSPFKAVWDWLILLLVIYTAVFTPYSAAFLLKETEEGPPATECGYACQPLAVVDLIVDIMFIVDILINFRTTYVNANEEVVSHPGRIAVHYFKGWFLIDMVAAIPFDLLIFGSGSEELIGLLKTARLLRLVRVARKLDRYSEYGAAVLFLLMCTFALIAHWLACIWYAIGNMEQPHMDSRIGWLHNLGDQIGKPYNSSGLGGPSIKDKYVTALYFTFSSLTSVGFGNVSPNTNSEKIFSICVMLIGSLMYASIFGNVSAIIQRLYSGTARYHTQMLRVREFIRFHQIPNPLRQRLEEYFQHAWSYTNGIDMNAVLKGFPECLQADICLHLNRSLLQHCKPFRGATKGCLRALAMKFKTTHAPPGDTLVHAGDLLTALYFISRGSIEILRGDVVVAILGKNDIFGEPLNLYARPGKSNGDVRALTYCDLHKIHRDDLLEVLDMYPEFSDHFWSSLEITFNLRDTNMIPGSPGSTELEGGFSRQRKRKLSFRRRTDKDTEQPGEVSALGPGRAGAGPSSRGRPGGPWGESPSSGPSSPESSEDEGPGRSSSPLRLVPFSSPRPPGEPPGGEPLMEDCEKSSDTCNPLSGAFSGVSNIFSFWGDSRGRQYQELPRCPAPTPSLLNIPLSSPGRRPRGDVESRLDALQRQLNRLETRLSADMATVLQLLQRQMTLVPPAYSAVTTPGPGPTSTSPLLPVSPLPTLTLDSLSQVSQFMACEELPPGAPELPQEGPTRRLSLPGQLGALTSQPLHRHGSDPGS

[6] = biological target: T1, CYP1A2 (Homo sapiens, UniProt P05177); test: Inhibition of CYP1A2 (unknown origin) using Phenacetin as cocktail probe substrate at 10 uM preincubated for 20 mins followed by substrate addition and measured after 20 mins by LC-MS/MS analysis relative to control; type: ADME; settings: time 40 min
T1 sequence (P05177 whole entry): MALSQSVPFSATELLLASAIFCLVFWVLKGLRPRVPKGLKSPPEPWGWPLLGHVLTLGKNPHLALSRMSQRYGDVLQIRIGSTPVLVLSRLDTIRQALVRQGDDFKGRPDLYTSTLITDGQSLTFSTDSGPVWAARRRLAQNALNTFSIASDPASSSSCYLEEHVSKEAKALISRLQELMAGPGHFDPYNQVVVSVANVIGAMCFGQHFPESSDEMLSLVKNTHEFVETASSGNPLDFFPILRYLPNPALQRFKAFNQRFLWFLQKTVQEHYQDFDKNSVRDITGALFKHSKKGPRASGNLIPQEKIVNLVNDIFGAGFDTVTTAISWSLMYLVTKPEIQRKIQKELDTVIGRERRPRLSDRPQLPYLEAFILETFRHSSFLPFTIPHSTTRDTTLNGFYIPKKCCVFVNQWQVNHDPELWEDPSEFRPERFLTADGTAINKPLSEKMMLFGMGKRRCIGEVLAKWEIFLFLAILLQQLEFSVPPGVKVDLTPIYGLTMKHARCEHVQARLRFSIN

[7] = biological target: CYP2C9 (Homo sapiens, UniProt P11712); test: Inhibition of CYP2C9 (unknown origin) using tolbutamide as cocktail probe substrate at 10 uM preincubated for 20 mins followed by substrate addition and measured after 20 mins by LC-MS/MS analysis relative to control; type: ADME; settings: time 40 min
Chain of CYP2C9 (P11712 whole entry): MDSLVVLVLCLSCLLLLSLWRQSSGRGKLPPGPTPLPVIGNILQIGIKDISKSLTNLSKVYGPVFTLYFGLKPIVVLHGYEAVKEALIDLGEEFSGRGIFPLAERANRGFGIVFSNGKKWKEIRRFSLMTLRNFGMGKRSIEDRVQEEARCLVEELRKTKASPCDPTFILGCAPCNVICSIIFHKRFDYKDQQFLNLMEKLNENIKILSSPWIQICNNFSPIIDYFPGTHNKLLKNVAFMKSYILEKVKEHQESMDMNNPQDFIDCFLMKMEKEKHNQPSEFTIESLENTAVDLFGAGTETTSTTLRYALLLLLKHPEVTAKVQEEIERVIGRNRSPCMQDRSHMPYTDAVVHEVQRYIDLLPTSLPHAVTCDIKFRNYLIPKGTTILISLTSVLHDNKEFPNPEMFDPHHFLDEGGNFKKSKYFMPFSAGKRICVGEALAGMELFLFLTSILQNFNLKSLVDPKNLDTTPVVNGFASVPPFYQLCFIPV

[8] = biological target: CYP2C19 (Homo sapiens, UniProt P33261); test: Inhibition of CYP2C19 (unknown origin) using cocktail of probe as substrate at 10 uM preincubated for 20 mins followed by substrate addition and measured after 20 mins by LC-MS/MS analysis relative to control; type: ADME; settings: time 40 min
Chain of CYP2C19 (P33261 whole entry): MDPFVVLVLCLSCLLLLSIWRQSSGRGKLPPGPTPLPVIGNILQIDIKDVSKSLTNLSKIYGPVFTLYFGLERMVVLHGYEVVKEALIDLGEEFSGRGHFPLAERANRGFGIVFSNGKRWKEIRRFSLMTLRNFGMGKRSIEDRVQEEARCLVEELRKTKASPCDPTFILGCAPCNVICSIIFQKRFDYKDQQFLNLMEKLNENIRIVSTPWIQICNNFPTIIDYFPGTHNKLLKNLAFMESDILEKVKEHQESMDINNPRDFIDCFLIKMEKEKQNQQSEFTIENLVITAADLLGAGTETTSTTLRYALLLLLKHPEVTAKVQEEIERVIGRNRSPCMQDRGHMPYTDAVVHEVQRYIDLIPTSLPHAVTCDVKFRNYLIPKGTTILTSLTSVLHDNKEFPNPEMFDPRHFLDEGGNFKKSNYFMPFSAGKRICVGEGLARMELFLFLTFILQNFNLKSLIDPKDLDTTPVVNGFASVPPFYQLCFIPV

[9] = biological target: CYP2D6 (Homo sapiens, UniProt P10635); test: Inhibition of CYP2D6 (unknown origin) using dextromethorphan as cocktail probe substrate at 10 uM preincubated for 20 mins followed by substrate addition and measured after 20 mins by LC-MS/MS analysis relative to control; type: ADME; settings: time 40 min
Chain of CYP2D6 (P10635 whole entry): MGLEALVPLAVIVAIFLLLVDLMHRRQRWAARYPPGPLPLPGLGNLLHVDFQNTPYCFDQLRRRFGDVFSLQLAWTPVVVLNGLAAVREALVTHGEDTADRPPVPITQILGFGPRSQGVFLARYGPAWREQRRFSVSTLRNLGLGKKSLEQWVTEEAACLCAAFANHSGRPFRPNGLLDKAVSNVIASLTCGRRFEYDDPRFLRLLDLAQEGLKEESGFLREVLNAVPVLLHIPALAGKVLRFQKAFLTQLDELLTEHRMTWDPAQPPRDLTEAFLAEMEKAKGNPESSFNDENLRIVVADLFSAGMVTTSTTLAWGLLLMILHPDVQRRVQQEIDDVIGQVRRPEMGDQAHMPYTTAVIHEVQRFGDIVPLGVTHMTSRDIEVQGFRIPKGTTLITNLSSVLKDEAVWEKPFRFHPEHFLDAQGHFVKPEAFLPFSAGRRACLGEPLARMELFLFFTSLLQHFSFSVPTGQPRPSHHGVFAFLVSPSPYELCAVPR

[10] = biological target: CYP3A4 (Homo sapiens, UniProt P08684); test: Inhibition of CYP3A4 (unknown origin) using midazolam as cocktail probe substrate at 10 uM preincubated for 20 mins followed by substrate addition and measured after 20 mins by LC-MS/MS analysis relative to control; type: ADME; settings: time 40 min
Chain of CYP3A4 (P08684 whole entry): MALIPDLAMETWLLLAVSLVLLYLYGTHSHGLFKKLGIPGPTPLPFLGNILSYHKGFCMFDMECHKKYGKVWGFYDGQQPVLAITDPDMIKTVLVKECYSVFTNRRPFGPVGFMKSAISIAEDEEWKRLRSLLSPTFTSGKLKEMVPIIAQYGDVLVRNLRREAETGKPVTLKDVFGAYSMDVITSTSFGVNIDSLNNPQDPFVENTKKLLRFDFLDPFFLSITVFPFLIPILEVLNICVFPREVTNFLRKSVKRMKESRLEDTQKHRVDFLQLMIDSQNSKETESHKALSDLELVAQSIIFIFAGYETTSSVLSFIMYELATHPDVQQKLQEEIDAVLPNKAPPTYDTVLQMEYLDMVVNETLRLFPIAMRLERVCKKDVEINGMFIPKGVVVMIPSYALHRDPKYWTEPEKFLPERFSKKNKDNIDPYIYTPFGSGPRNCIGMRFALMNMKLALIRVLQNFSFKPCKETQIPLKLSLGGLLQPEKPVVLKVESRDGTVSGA

[11] = Permeability across apical to basolateral side in human Caco-2 cells at pH 7.4 by LC-MS/MS analysis; type: ADME, cell-based; settings: Caco-2, pH 7.4, read-out: permeability
[12] = Metabolic stability in human liver microsomes assessed as intrinsic clearance by LC-MS/MS analysis; type: ADME, Microsome; settings: read-out: CLH
[13] = Oral bioavailability in Sprague-Dawley rat at 10 mg/kg measured upto 24 hrs by LC-MS/MS analysis; type: ADME, organism-based; settings: in vivo
[14] = biological target: T2, Receptor-interacting serine/threonine-protein kinase 1 (Homo sapiens, UniProt Q13546); test: Binding affinity to wild-type human partial length RIPK1 (M1 to K305 residues) expressed in bacterial expression system measured after 1 hr by Kinomescan method
T2 sequence (Q13546 whole entry): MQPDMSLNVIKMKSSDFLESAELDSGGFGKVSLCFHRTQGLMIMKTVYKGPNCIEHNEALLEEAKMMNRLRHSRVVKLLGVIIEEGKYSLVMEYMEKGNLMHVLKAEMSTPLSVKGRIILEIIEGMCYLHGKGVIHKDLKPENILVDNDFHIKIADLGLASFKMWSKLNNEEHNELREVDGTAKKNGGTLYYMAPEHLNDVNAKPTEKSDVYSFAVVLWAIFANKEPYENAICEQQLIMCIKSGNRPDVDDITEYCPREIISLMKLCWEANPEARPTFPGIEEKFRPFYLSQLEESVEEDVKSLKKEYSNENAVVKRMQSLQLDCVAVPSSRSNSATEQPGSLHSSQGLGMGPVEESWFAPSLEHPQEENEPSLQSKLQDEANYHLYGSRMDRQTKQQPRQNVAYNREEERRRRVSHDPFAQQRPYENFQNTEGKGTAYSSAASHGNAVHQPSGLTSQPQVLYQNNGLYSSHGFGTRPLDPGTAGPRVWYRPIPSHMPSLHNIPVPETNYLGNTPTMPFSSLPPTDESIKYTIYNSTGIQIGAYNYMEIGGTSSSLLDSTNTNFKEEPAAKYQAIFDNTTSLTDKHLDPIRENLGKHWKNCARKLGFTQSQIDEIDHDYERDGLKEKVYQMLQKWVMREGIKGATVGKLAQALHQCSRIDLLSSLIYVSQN

[15] = biological target: T2, Receptor-interacting serine/threonine-protein kinase 1; test: Inhibition of RIPK1 (unknown origin) using MBP and ATP as substrate preincubated for 10 mins followed by substrate addition and measured after 120 mins by ADP-Glo luminescence assay
[16] = test system: Mus musculus; test: Antiinflammatory activity in TNFalpha-induced C57BL/6J mouse systemic inflammatory response syndrome model assessed as reduction in IL-6 production in serum at 3 mg/kg, ip pretreated for 15 mins and measured upto 72 hrs after TNFalpha stimulation; type: functional, organism-based
[17] = Toxicity in C57BL/6J mouse assessed as effect on heart morphological changes at 5 to 25 mg/kg, po administered daily for 7 days by Hand E staining method; type: organism-based; settings: in vivo, 168 h, dose 5-25 mg/kg, time 7 day
[18] = Toxicity in C57BL/6J mouse assessed as effect on spleen morphological changes at 5 to 25 mg/kg, po administered daily for 7 days by H and E staining method; type: organism-based; settings: in vivo, 168 h, dose 5-25 mg/kg, time 7 day
[19] = Half life in Sprague-Dawley rat at 2 mg/kg, iv measured upto 24 hrs by LC-MS/MS analysis; type: ADME, organism-based; settings: in vivo
[20] = Half life in Sprague-Dawley rat at 10 mg/kg , po measured upto 24 hrs by LC-MS/MS analysis; type: ADME, organism-based; settings: in vivo
[21] = test system: Mus musculus; test: Anti-necroptosis activity against TNFalpha-induced C57BL/6J mouse systemic inflammatory response syndrome model assessed as reduction in hypothermia at 3 mg/kg, ip pretreated for 15 mins and measured upto 72 hrs after TNFalpha stimulation; type: functional, organism-based
[22] = Fraction unbound clearance in Sprague-Dawley rat; type: ADME

## Cc1ncc(-c2ccc3nc(NC(=O)C4CC4)sc3c2)cc1NC(=O)OC1CCOCC1
[1]
  Cmax: 1330 ng/mL
[2]
  EC50: 17 nM
[3]
  EC50: 30 nM
[4]
  half-life: 1.48 h
[5]
  IC50: > 30000 nM
[6]
  inhibition at 20 min, 10 µM: 16%
[7]
  inhibition at 20 min, 10 µM: 62%
[8]
  inhibition at 20 min, 10 µM: 41%
[9]
  inhibition at 20 min, 10 µM: 21%
[10]
  inhibition at 20 min, 10 µM: 17%
[11]
  Papp A→B: 33 ×10⁻⁶ cm/s
[12]
  CLint scaled: 49 mL/min/kg
[13]
  F: 63%
[14]
  Kd: 9.2 nM
[15]
  IC50: 67 nM
[16]
  Activity: Active
[17]
  Activity: Non-Toxic
[18]
  Activity: Non-Toxic
[19]
  half-life: 1 h
[20]
  half-life: 1.7 h
[21]
  Activity: Active
[22]
  CL free: 183 mL/min/kg
